Source: patent US7247438B1, “Methods of identifying agents which enhance caspase activity” (priority 1997, dated 2007)
Entries after “also recorded” stand apart in the source; their conditions may differ. Peptide text beside a SMILES is read from it. * marks the point of attachment. Cbz = O=C(OCc1ccccc1)*; CH2F = FC*

How the values were obtained:
[1] = system: thymic caspase (~17 kD subunit); assay: Western blot of thymic lysates: binding of biotinylated substrate to activated thymic caspase and competition; design: species or system mouse; conditions: for blocking of biotin-DEVDamk binding to the antigen-activated caspase: pretreatment of thymic lysates with excess (100-fold molar, FIG. 2D) of inhibitor
[2] = target: T1, recombinant Mch2a (caspase-6) (Homo sapiens, UniProt P55212); assay: Western blot: binding of biotinylated substrate to recombinant Mch2a; conditions: FIG. 2B; 15 minutes with 2 mM biotin-DEVDamk
T1 construct: made in house
T1 sequence (P55212 24-179 limits assumed): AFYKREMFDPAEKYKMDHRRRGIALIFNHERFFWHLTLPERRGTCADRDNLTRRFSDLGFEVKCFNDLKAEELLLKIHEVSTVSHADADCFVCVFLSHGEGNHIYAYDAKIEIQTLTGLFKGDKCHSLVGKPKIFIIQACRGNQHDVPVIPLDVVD
T1 sequence (P55212 194-293 limits assumed): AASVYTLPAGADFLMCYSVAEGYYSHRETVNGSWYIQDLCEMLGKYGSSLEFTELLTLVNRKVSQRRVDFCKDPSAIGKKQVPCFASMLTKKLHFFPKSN

[3] = target: T2, recombinant Yama/caspase-3 (Homo sapiens, UniProt P42574); assay: Western blot: binding of biotinylated substrate to recombinant Yama; conditions: FIG. 2B; 15 minutes with 2 mM biotin-DEVDamk
T2 construct: made in house
T2 sequence (P42574 29-175 limits assumed): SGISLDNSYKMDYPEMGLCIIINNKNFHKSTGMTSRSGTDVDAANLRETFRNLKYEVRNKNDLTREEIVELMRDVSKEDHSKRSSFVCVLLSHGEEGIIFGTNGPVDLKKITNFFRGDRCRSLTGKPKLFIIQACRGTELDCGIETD
T2 sequence (P42574 176-277 limits assumed): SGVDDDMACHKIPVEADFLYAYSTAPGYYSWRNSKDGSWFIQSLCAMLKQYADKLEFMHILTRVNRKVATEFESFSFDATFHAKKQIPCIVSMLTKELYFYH

[4] = system: DP thymocytes in FTOC of N15 TCR tg RAG-2−/− H-2b mice; format: cell-based, mouse; conditions: for effect on antigen (VSV8)-induced depletion of DP thymocytes: N15 FTOC, 2 hours with 100 μM inhibitor followed by 18 hours with 10 μM VSV8
[5] = system: CD4+ CD8+ DP thymocytes in FTOC of C57BL/6 mice; assay: glucocorticoid (dexamethasone)-induced DP thymocyte death in FTOC, FACS analysis; format: cell-based, mouse
[6] = system: thymocytes in N15 tg RAG-2−/− H-2b FTOC; format: cell-based, mouse
[7] = system: activated thymic caspase in N15 tg RAG-2−/− H-2b FTOC; format: cell-based, mouse; conditions: for effect of pretreatment on VSV8-induced caspase activation (biotin-DEVDamk staining): FTOC, inhibitor pretreatment, then VSV8 4 hours
[8] = system: CD4+ CD8+ DP thymocytes in FTOC of C57BL/6 mice; assay: anti-CD3ε mAb (2C11)-induced deletion of DP thymocytes in FTOC, FACS analysis; format: cell-based, mouse; design: effect on anti-CD3ε (2C11) mAb-induced deletion of DP thymocytes: dose or concentration left out as unconfirmed
[9] = system: Drosophila Schneider cells; conditions: added to Drosophila Schneider cells; cited from earlier work
[10] = system: Rat thymocytes in suspension; conditions: cited from earlier work
caspase-1 = target: T3, caspase-1 (Homo sapiens, UniProt P29466); conditions: caspase-1 versus caspase-3; cited from earlier work
T3 sequence (P29466 120-297 limits assumed): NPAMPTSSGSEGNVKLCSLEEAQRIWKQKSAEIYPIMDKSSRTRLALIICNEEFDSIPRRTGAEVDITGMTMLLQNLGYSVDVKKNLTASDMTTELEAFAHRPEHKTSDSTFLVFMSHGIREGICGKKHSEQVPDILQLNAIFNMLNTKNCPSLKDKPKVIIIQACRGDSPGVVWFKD
T3 sequence (P29466 317-404 limits assumed): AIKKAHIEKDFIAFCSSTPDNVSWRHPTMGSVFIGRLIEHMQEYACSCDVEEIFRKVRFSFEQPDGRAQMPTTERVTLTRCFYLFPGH

thymic caspase = assay: caspase activation in thymic lysates of adult mice after tail vein peptide injection (Western blot); conditions: mouse, in vivo
[11] = system: thymocytes in non-tg RAG-2−/− FTOC; format: cell-based, mouse
[12] = system: activated thymic caspase in adult N15 tg RAG-2−/− H-2b mice; conditions: mouse, in vivo

Molecule: Cc1cccc(C)c1C(=O)OCC(=O)C(CC(=O)O)NC(=O)[C@@H](NC(=O)[C@H](CCC(=O)O)NC(=O)[C@H](CC(=O)O)NC(=O)CCCC[C@@H]1SC[C@@H]2NC(=O)N[C@@H]21)C(C)C (some centres unmarked) [biotin-DEVDamk, N-(Biotinylaspartylglutamylvalinyl)aspartic acid [(2,6-Dimethylbenzoyl)oxy]methyl Ketone]
- detection of / affinity for the activated thymic caspase by biotinylated substrate [1]: highest affinity
- binding of biotinylated substrate to recombinant Mch2a (caspase-6) [2]: bind
- binding of biotinylated substrate to recombinant Yama/caspase-3 [3]: bind

Molecule: FAPGNYPAL [SEV9]
- depletion/death of DP thymocytes induced by peptide (in words) [4]: does not result in thymocyte death

Molecule: C[C@@H]1C[C@H]2[C@@H]3CCC4=CC(=O)C=C[C@]4(C)[C@@]3(F)[C@@H](O)C[C@]2(C)[C@@]1(O)C(=O)CO [Dexamethasone]
- percentage of DP thymocytes ([5]; FTOC, control 74%): 19%

Molecule: COC(=O)CC(NC(=O)C(C)NC(=O)C(NC(=O)OCc1ccccc1)C(C)C)C(C)=O (centres unmarked) [zVADmk, N-(Z-Valinylalanyl)aspartic acid methyl ketone, b-methyl ester]
- blocking of biotin-DEVDamk binding to the antigen-activated caspase [1]: does not block
- number of TdT (TUNEL) positive apoptotic cells in histological sections (in words) [6]: levels of TdT positive cells similar to cultures treated with VSV8 alone; also recorded: no effect
- effect on antigen (VSV8)-induced depletion of DP thymocytes [4]: has no effect; also recorded: fails to block
- effect of pretreatment on VSV8-induced caspase activation (biotin-DEVDamk staining) [7]: not

Molecule: COC(=O)C[C@H](NC(=O)[C@H](C)NC(=O)[C@@H](NC(=O)OCc1ccccc1)C(C)C)C(=O)CF [zVADfmk, N-benzyloxycarbonyl-Val-Ala-Asp-fluoromethylketone, b-methyl ester] (Cbz-Val-Ala-Asp(OMe)-CH2F)
- effect on anti-CD3ε (2C11) mAb-induced deletion of DP thymocytes ([8]; 2-hour preincubation, harvested 18 hours later): inhibited; also recorded: blocked
- effect of agent alone on percentage of DP thymocytes in FTOC ([8]; FTOC C57BL/6, no 2C11): does not alter
- effect on dexamethasone (glucocorticoid)-induced death/deletion of DP thymocytes ([5]; 2-hour pretreatment with 100 μM zVADfmk): protects; also recorded: blocked
- effect on apoptosis induced by expression of REAPER protein [9]: blocks the induction of apoptosis
- blocking of biotin-DEVDamk binding to the antigen-activated caspase [1]: blocks binding; also recorded: prevents binding
- number of TdT (TUNEL) positive apoptotic cells in histological sections (in words) [6]: reduces the number of TdT+ cells to that of the control; also recorded: blocked
- effect on antigen (VSV8)-induced depletion of DP thymocytes [4]: completely blocks; also recorded: blocked; also recorded: blocks depletion
- effect on glucocorticoid-induced death [10]: blocked
- effect of pretreatment on VSV8-induced caspase activation (biotin-DEVDamk staining) [7]: blocked

Molecule: CC(=O)N[C@@H](Cc1ccc(O)cc1)C(=O)N[C@H](C(=O)N[C@@H](C)C(=O)N[C@H](C=O)CC(=O)O)C(C)C [Ac-YVAD-CHO]
- fold lower concentration to inhibit caspase-1 than required to inhibit caspase-3 (caspase-1): ~10,000 fold

Molecule: RGYVYQGL [VSV8]
- time to induction of an active caspase after tail vein injection (thymic caspase): ≤ 2 h
- TdT positive cells mm2, N15tg #1 [6]: 429 mm2
- TdT positive cells mm2, N15tg #2 [6]: 456 mm2
- TdT positive cells mm2, N15tg #3 [6]: 441 mm2
- number of TdT (TUNEL) positive apoptotic cells in histological sections (in words) [6]: obvious increase
- depletion/death of DP thymocytes induced by peptide (in words) [4]: massive depletion
- percent CD4+ CD8+ DP thymocytes [4]: 21
- TdT positive cells mm2, non-tg [11]: 9 mm2
- biotin-DEVDamk staining of thymic sections [12]: widespread biotin-DEVDamk staining
- biotin-DEVDamk staining (activation of thymic caspase) in FTOC sections [7]: widespread biotin-DEVDamk staining throughout the cortex
